Experiments:
Type in all cases: physicochemical
[1] = Chemical stability test: residual rate measurement by HPLC after storage; conditions: for Residual rate (%): versus sample stored at −20° C.
Experimental: The chemical stability of crystals of ditosylate, dibesylate, pentahydrate and monoacetate of Compound A was measured by the following method and conditions.
About 1.5 to 3 mg of a test compound was weighed in a lab tube and stored under the following conditions.
After storage, the residual rate (%) of the stored sample under each condition was calculated by HPLC based on the area percentage of main medicine of the sample stored at −20° C. In addition, appearance was visually observed and compared with the sample stored at −20° C. […]
Comparison object of each sample was stored at −20° C.
An evaluation sample (0.8 mg) was dissolved in a mixed solution of acetonitrile/100 mM NaClO4 […] about 0.8 mL (sample concentration: 1.0 mg/mL) acetonitrile/100 mmol/L NaClO4 aq. (pH3.0) (3/1) to prepare a solution of 1.0 mg/mL (concentration as salt).
Detector: Ultraviolet absorptiometer (measurement wavelength: 265 nm)
Column: SPELCO Ascentis Express (150 mm×4.6 mm, S-2.7 μm)
Column temperature: 25° C.
Mobile phase: Solution A: 100 mmol/L NaClO4 aq. (pH 3.0), Solution B: acetonitrile
Area measurement range: 34.6 minutes

[2] = Hygroscopicity evaluation (isotherm adsorption curve); conditions: 25° C., relative humidity in the range of 5% to 70%
Experimental: The isotherm adsorption curve was measured under the following conditions. Ditosylate, monoacetate and pentahydrate of Compound A were measured under Condition 1, and besylate of […] was measured under Condition 2.
Measurement temperature: 25° C.
Measurement range: Relative humidity of 5 to 95%
Measurement interval: Relative humidity of 5%
Measurement range: Relative humidity of 0 to 95%

[3] = Physical stability: powder X-ray measurement before and after storage; conditions: 25° C.-60% RH, 2 months
Experimental: The physical stability of monoacetate and ditosylate of Compound A was measured by the following method and conditions.
Test compounds were respectively weighed in a lab tube at about 20 mg for monoacetate and about 40 mg for ditosylate, and stored under the following conditions.
Device: D8 DISCOVER with GADDS manufactured by BRUKER axs

[4] = crystals stored at 40° C.-75% RH (opened) for 2 months
[5] = crystals stored at 60° C. for 1 month
[6] = crystals stored at 40° C. for 2 months

SMILES | Residual rate (%) [1, 4] [%] | Residual rate (%) [1, 5] [%] | weight gain [2] [wt %] | Residual rate (%) [1, 6] [%] | change of powder X-ray diffraction spectrum before and after storage [3] | Residual rate (%) ([1]; crystals stored at 40° C. for 2 months, monoacetate) | Residual rate (%) ([1]; crystals stored at 40° C.-75% RH (opened) for 2 months, monoacetate) | Residual rate (%) ([1]; crystals stored at 60° C. for 1 month, monoacetate) | weight gain ([2]; listed as monoacetate of Compound A, monoacetate) [wt %] | residual rate ([1]; under the conditions of 40° C.-75%) | weight gain ([2]; listed as pentahydrate of Compound A) [wt %]
CS(=O)(=O)N1CCN([C@H]2C[C@@H](C(=O)Nc3ccc(C(=O)O)cc3)N(C(=O)c3ccc(C(=N)N)cc3)C2)CC1.O=S(=O)(O)c1ccccc1 [Dibesylate, 4-({(4S)-1-(4-Carbamimidoylbenzoyl)-4-[4-(methylsulfonyl)piperazin-1-yl]-L-prolyl}amino) benzoic acid dibenzenesulfonate] | 99.5 | 100 | 1.9 |  |  |  |  |  |  |  | 
CS(=O)(=O)N1CCN([C@H]2C[C@@H](C(=O)Nc3ccc(C(=O)O)cc3)N(C(=O)c3ccc(C(=N)N)cc3)C2)CC1.Cc1ccc(S(=O)(=O)O)cc1 [Ditosylate, 4-({(4S)-1-(4-Carbamimidoylbenzoyl)-4-[4-(methylsulfonyl)piperazin-1-yl]-L-prolyl}amino) benzoic acid di(4-toluenesulfonate)] | 99.3 | 100 | 1.5 | 100 | no significant peak change was recognized |  |  |  |  |  | 
CS(=O)(=O)N1CCN([C@H]2C[C@@H](C(=O)Nc3ccc(C(=O)O)cc3)N(C(=O)c3ccc(C(=N)N)cc3)C2)CC1 [Monoacetate, 4-({(4S)-1-(4-Carbamimidoylbenzoyl)-4-[4-(methylsulfonyl)piperazin-1-yl]-L-prolyl}amino) benzoic acid monoacetate] |  |  |  |  | change in the spectra was recognized | 99 | 95 | 97.5 | 6.4 |  | 
CS(=O)(=O)N1CCN([C@H]2C[C@@H](C(=O)Nc3ccc(C(=O)O)cc3)N(C(=O)c3ccc(C(=N)N)cc3)C2)CC1 [Pentahydrate, 4-({(4S)-1-(4-Carbamimidoylbenzoyl)-4-[4-(methylsulfonyl)piperazin-1-yl]-L-prolyl}amino) benzoic acid pentahydrate] | 37 | 23.1 |  | 36.3 |  |  |  |  |  | reduced residual rate | 12.2

Reference: US20210371379A1, “NOVEL SALT OF 4-({(4S)-1-(4-CARBAMIMIDOYLBENZOYL)-4-[4(METHYLSULFONYL)PIPERAZIN-1-YL]-L-PROLYL}AMINO) BENZOIC ACID AND NOVEL CRYSTAL FORM THEREOF” (ONO PHARMACEUTICAL CO., LTD., priority 2018, published 2021)
